Reference: patent US20090202565A1, “TORC POLYNUCLEOTIDES AND POLYPEPTIDES AND METHOD OF USE” (priority 2004, published 2009)
Where no end group is shown, it is not given here.

Legend:
TORC3-eGFP = TORC3-eGFP nuclear translocation in HEK293 cells, fluorescence microscopy; format: cell-based, human; settings: for translocation of TORC3-eGFP to the nucleus: 45 min, 10 nM LMB, 10 uM ionomycin, or both
Experimental: (§1) HEK293 cells are transfected with either pCMV-TORC1-eGFP, pCMV-TORC2-eGFP or pCMV-TORC3-eGFP linearized with AseT restriction endonuclease and stable integrants are selected with 700 ug/ml geneticin generating a population of cells that express TORC-eGFP. These are referred to as 293hTORC1, 293hTORC2 or 293hTORC3 cells, respectively. All of the stable TORC-eGFP cell-lines are subjected to fluorescence activated cell sorting to remove non-fluorescing cells.
(§2) The localization of human TORC2 and TORC3 is also examined. Both HeLa cells and HEK293 cells are transfected with either pCMV-TORC2-eGFP or pCMV-TORC3-eGFP.
(§3) In order to assess this possibility, HeLa cells stably expressing TORC1-eGFP are exposed to either no treatment (FIG. 5, panel A), 50 uM forskolin and 100 uM IBMX (panel B), or 1 mM db-cAMP (panel C) for 2 hours. […] Similarly, HEK293 cells stably expressing TORC2-eGFP (FIG. 5, panels D and E) or TORC3-eGFP (panels F and G) are either untreated (panels D and F) or treated with 25 uM forskolin for 1 hour (panels E and G).

TORC2-eGFP = TORC2-eGFP nuclear translocation in HEK293 cells, fluorescence microscopy; format: cell-based, human; settings: for translocation of TORC2-eGFP to the nucleus: 45 min, 10 nM LMB, 10 uM ionomycin, or both
Experimental: as §1, §2, §3

TORC1-eGFP [1] = assay: TORC1-eGFP nuclear translocation in stably expressing HEK293 cells; format: cell-based, human; settings: stable HEK293; for TORC1-eGFP fluorescence localization: 1 hr, 10 nM LMB alone, 160 nM isoproterenol alone, or isoproterenol plus LMB; for translocation of TORC1-eGFP to the nucleus: 45 min, 10 nM LMB, 10 uM ionomycin, or both
Experimental: as §1
To assess whether TORC translocation is induced by stimulation of endogenous G-protein coupled receptors (GPCRs), HEK293 cells stably expressing various TORC-eGFP fusions are treated with isoproterenol, a β2-adrenergic receptor agonist, for 1 hr.

CRE-driven luciferase = assay: CRE-dependent luciferase reporter in HeLa and HeLa::TORC1-eGFP cells; format: cell-based; settings: 18 hours; for activation of CRE-driven luciferase in naïve HeLa cells: 5 uM ionomycin, 10 uM PMA
Source text: To determine the effect of TORC1 over-expression and localization on gene expression, CRE-dependent transcription is compared in untransfected HeLa cells and HeLa cells stably expressing TORC1-eGFP using a luciferase reporter containing a CRE-dependent promoter.

TORC1-eGFP [2] = assay: TORC1 (FLAG-TORC1 / TORC1-eGFP) nuclear translocation in HeLa cells, fluorescence microscopy; format: cell-based, human
Experimental: Generation of stable TORC-eGFP cell lines. HeLa cells are transfected with pCMV-TORC1-eGFP and stable integrants are selected with 700 ug/ml geneticin. A single colony that expressed TORC1-eGFP is isolated and expanded (HhTORC1eGFP cells). […]
HeLa cells are transfected with FLAG-TORC1 (FIG. 1, panels A and B) or TORC1-eGFP (panels C and D). Cells are either untreated (panels A and C) or treated with 10 nM leptomycin-B (LMB), a fungal inhibitor of CRM1 mediated nuclear export of proteins, for 90 min (panels B and D). FLAG-tagged protein is visualized by immunofluorescence while eGFP-tagged proteins are directly visualized by fluorescence. […] Since a variety of signal transduction proteins are regulated by either nuclear export or stimulus induced import, the localization of TORC1 is examined after treatment with LMB. […]

CRE-luciferase [3] = assay: CRE-luciferase reporter with dominant negative TORC1(1-44)-eGFP in HeLa cells; format: cell-based
Source text: The siRNA results (Example 12) are complicated by the need to use multiple siRNAs and to block multiple TORCs. In order to efficiently block activity of all TORC proteins more readily, a dominant interfering TORC protein is designed which fuses the highly conserved 44 amino-acid CREB-binding domain of TORC1 to eGFP (T1-44eGFP). To block activity of all TORC proteins efficiently, a dominant interfering protein that should specifically block the ability of all TORC's to interact with CREB1 is designed. The CREB1 interaction domain of TORC proteins is present in the first 44 amino acids of TORC1. The N-terminal 44 amino acids, representing the first exon of the TORC1 gene, is nearly 100% conserved in virtually all mammalian, C. elegans and Drosophila TORC proteins, yet has virtually no homology or similarity to any other proteins (Tourgenko et al., 2003). […] HeLa cells are transfected with either the eGFP control or TORC1(1-44)-eGFP with either CRE-luciferase (FIG. 16, panel A) or NFKB-luciferase (panel B) prior to stimulation with 50 uM forskolin/100 uM IBMX or 5 uM ionomycin. In panel C, HEK293 cells are transiently transfected with CRE-luciferase and the β2-adrenergic receptor (β2AR) in combination with either the empty CMV vector, eGFP, or TORC1(1-44)-eGFP fusion and exposed to isoproterenol for 18 hours. […] Thus blockade of TORC function also prevents CRE-activation through a Gs-linked GPCR using isoproterenol.

NF-kappaB reporter = assay: NFKB-luciferase reporter with dominant negative TORC1(1-44)-eGFP in HeLa cells; format: cell-based
Source text: (§4) The siRNA results (Example 12) are complicated by the need to use multiple siRNAs and to block multiple TORCs. In order to efficiently block activity of all TORC proteins more readily, a dominant interfering TORC protein is designed which fuses the highly conserved 44 amino-acid CREB-binding domain of TORC1 to eGFP (T1-44eGFP). To block activity of all TORC proteins efficiently, a dominant interfering protein that should specifically block the ability of all TORC's to interact with CREB1 is designed. The CREB1 interaction domain of TORC proteins is present in the first 44 amino acids of TORC1. The N-terminal 44 amino acids, representing the first exon of the TORC1 gene, is nearly 100% conserved in virtually all mammalian, C. elegans and Drosophila TORC proteins, yet has virtually no homology or similarity to any other proteins (Tourgenko et al., 2003). […] HeLa cells are transfected with either the eGFP control or TORC1(1-44)-eGFP with either CRE-luciferase (FIG. 16, panel A) or NFKB-luciferase (panel B) prior to stimulation with 50 uM forskolin/100 uM IBMX or 5 uM ionomycin. In panel C, HEK293 cells are transiently transfected with CRE-luciferase and the β2-adrenergic receptor (β2AR) in combination with either the empty CMV vector, eGFP, or TORC1(1-44)-eGFP fusion and exposed to isoproterenol for 18 hours. […]

CRE-luciferase [4] = assay: CRE-luciferase with β2-adrenergic receptor and isoproterenol in HEK293 cells; format: cell-based; settings: HEK293 transiently transfected; isoproterenol 18 hours
Source text: as §4

dTORC-eGFP = dTORC-eGFP translocation in Drosophila larval salivary glands; format: cell-based; settings: 5 uM ionomycin 1 hour; 100 uM db-cAMP 4 hours
Experimental: Drosophila Methods. The Gal4 responder construct, UAS-GFP-TORC, is created by PCR cloning the eGFP gene from the pEGFP—N1 vector (Clontech # 6085-1) and the dTORC gene from Drosophila genomic DNA into the pUAST vector (Brand and Perrimon, 1993). This construct is injected into Drosophila embryos by P-element germline transformation to create transgenic lines (Rubin and Spradling, 1982). To induce expression of the fusion protein, flies containing UAS-GFP-TORC are crossed to flies containing the HS-Gal4 construct obtained from the Bloomington Stock Center, University of Indiana, Bloomington, Ind. The larvae are heat-shocked at […] and salivary glands from late third instar larvae were dissected in PBS, placed in Sang M3 media (Sigma #S3652) containing various chemical treatments in a 96-well plate. The glands are visualized using the Nikon Eclipse TE2000-E fluorescent microscope. Images are taken at a 100× magnification.
A fusion of eGFP and the Drosophila TORC (dTORC) protein is generated. […] Salivary glands dissected from transgenic larvae expressing the dTORC fusion protein are examined by microscopy. dTORC-eGFP is localized in the cytoplasm in all of the cells in the gland (FIG. 17, panels A and D). […] Thus, the localization of TORC in Drosophila is regulated by cAMP and calcium, just as in human cells. […]

[5] = stable HEK293, 160 nM isoproterenol alone, 1 hr
[6] = transfected HEK293, LMB treatment

CC(C)NCC(O)c1ccc(O)c(O)c1 (stereo not drawn) [isoproterenol, Isoproterenol]
TORC3-eGFP fluorescence localization (TORC3-eGFP; [5]): fluorescence from the nucleus occurs | TORC2-eGFP fluorescence localization (TORC2-eGFP; [5]): fluorescence from the nucleus occurs | TORC1-eGFP fluorescence localization (TORC1-eGFP [1]): eGFP fluorescence originating from the cytoplasm

CCC(=C/[C@H](C)C/C=C/C(C)=C/[C@@H](C)C(=O)[C@@H](C)[C@H](O)[C@@H](C)C/C(C)=C/C(=O)O)/C=C/[C@@H]1OC(=O)C=C[C@@H]1C [LMB, Leptomycin B]
time until TORC3-eGFP becomes predominantly nuclear following LMB exposure (TORC3-eGFP; stable HEK293): approximately 90 min | translocation of TORC3-eGFP to the nucleus (TORC3-eGFP; stable HEK293): weak or no translocation to the nucleus | nuclear accumulation of TORC3-eGFP (TORC3-eGFP; [6]): induces accumulation of both proteins in the nuclei | induction of CRE-driven luciferase (CRE-driven luciferase; 10 nM LMB, naïve HeLa vs HeLa::TORC1-eGFP): significant induction only in the HeLa::TORC1-eGFP cells | time until TORC2-eGFP becomes predominantly nuclear following LMB exposure (TORC2-eGFP; stable HEK293): ≤ 120 min | translocation of TORC2-eGFP to the nucleus (TORC2-eGFP; stable HEK293): weak or no translocation to the nucleus | nuclear accumulation of TORC2-eGFP (TORC2-eGFP; [6]): induces accumulation of both proteins in the nuclei | time to near complete TORC1 translocation following LMB exposure (TORC1-eGFP [2]; HeLa cells, data not shown): less than 30 minutes | subcellular localization of TORC1 fusion proteins (TORC1-eGFP [2]; HeLa transfected with FLAG-TORC1 or TORC1-eGFP, 10 nM LMB, 90 min): present predominantly in the nucleus | TORC1-eGFP translocation (nuclear-cytoplasmic fluorescence difference), positive control of cDNA screen (TORC1-eGFP [2]; HeLa, 384-well plates, Cellomics ArrayScan II): detected in virtually all control wells | translocation of TORC1-eGFP to the nucleus (TORC1-eGFP [1]): weak or no translocation to the nucleus | TORC1-eGFP fluorescence localization (TORC1-eGFP [1]): eGFP fluorescence originating from the cytoplasm

T1(1-44)eGFP: dominant interfering protein fusing the 44 amino-acid CREB-binding domain of TORC1 to eGFP (MATSNNPRKFSEKIALHNQKQAEETAAFEEVMKDLSLTRAARLQ; also: fused to eGFP)
effect on CRE activation through forskolin/IBMX or ionomycin and PMA (CRE-luciferase [3]; HeLa, 50 uM forskolin/100 uM IBMX or 5 uM ionomycin): potently blocks CRE activation | effect on activity of all three TORCs on CRE-activation (CRE-luciferase [3]; data not shown): inhibited | effect on enhanced CRE-response in HhTORC1 cells (CRE-luciferase [3]; data not shown): effectively blocked | effect on activation of NF-kappaB reporter by ionomycin and PMA (NF-kappaB reporter): no effect on activation of an NF-kappaB reporter | effect on CRE-luciferase induction by β2AR and isoproterenol (CRE-luciferase [4]): strongly inhibits CRE-luciferase induction

CCCC(=O)Nc1ncnc2c1ncn2[C@@H]1O[C@@H]2COP(=O)(O)O[C@H]2[C@H]1OC(=O)CCC [db-cAMP, dibutyryl cyclic-AMP]
translocation of TORC1-eGFP on raising intracellular cAMP (TORC1-eGFP [2]; HeLa stable TORC1-eGFP, 50 uM forskolin and 100 uM IBMX, or 1 mM db-cAMP, 2 hours): partial translocation of TORC1-eGFP | translocation of dTORC-eGFP into the nucleus (dTORC-eGFP): induced translocation of dTORC-eGFP into the nucleus

CCCCCCCCCCCCCC(=O)O[C@@H]1[C@@H](C)[C@@]2(O)[C@@H](C=C(CO)C[C@]3(O)C(=O)C(C)=C[C@@H]23)[C@@H]2C(C)(C)[C@]12OC(C)=O [PMA, Phorbol 12-myristate 13-acetate]
activation of CRE-driven luciferase in naïve HeLa cells (CRE-driven luciferase): modest level of activation | accumulation of TORC1-eGFP in the nucleus in response to PMA (TORC1-eGFP [2]; HeLa stable TORC1-eGFP, 10 uM PMA, 1 hour): induced TORC1-eGFP to accumulate in the nucleus

C[C@H](CCC(=O)O)C[C@H](C)C[C@H](C)C(=O)/C=C(\O)[C@H](C)C[C@H](C)C/C=C/[C@@H](C)[C@@H](O)[C@@H](C)[C@@H](O)C[C@@H]1CC[C@@](C)([C@H]2CC[C@@](C)([C@@H](C)O)O2)O1 [ionomycin]
translocation of TORC3-eGFP to the nucleus (TORC3-eGFP; stable HEK293): weak or no translocation to the nucleus | activation of CRE-driven luciferase in naïve HeLa cells (CRE-driven luciferase): modest level of activation | translocation of TORC2-eGFP to the nucleus (TORC2-eGFP; stable HEK293): weak or no translocation to the nucleus | accumulation of TORC1-eGFP in the nucleus in response to calcium (TORC1-eGFP [2]; HeLa stable TORC1-eGFP, 1 uM ionomycin or 10 uM CPA, 1 hour): potently induce accumulation of the TORC1-eGFP in the nucleus | translocation of dTORC-eGFP into the nucleus (dTORC-eGFP): induced translocation of dTORC-eGFP into the nucleus | translocation of TORC1-eGFP to the nucleus (TORC1-eGFP [1]): weak or no translocation to the nucleus
